According to patent publication US20220378773A1, “METHODS FOR TREATING LEUKEMIA AND USE OF A LEUKEMIC STEM CELL SIGNATURE TO PREDICT CLINICAL SENSITIVITY TO THERAPIES” (CELGENE CORPORATION, priority 2019, published 2022):

Test system: AML graft (human CD45+CD33+ cells)
Test: AML xenograft efficacy, 2.5 mg/kg IP twice daily
Assay type: in vivo, NOD/SCID mice
Conditions: for In vivo Efficacy (% reduction) BM / In vivo Efficacy (% reduction) RF: AML cells vs vehicle; for Response: class by % reduction of AML cells in RF or BM
Source text: Preparation of Test Article for Dosing: For in vivo Compound D dosing, Compound D was formulated immediately prior to each dose following the protocol below.
Formulation: 5% NMP/45% polyethylene glycol (PEG) 400/50% Saline; NMP—Catalogue no. 69118 (new no. M79603-1L), Fluka; PEG400—Catalogue no. 81172-1L, Fluka; Saline—0.9% sodium chloride.
Preparation: Weigh the desired amount of compound in glass vial. Add NMP and vortex. Make sure that entire compound is wet. Add PEG400 and vortex until clear solution without particulates. Add saline slowly and mix thoroughly for about a minute with hand held homogenizer with disposable tip.
Compound Administration: Compound D is dosed via the intraperitoneal route. Vehicle and Compound D are dosed in a volume of 2.5 mL/kg for twice daily (BID) dosing (if testing once daily [QD] dosing, use a dose volume of 5 mL/kg). Recommend a twice daily protocol with a 3-hour separation between the doses.
Intrafemoral Transplantation: One day prior to transplantation, NOD/SCID mice were preconditioned by sublethally irradiating (275 cGy) followed by injection with anti-CD122 antibody (200 μg/mouse) to deplete residual host natural killer (NK) cells. On the day of transplantation, viably frozen AML bulk cells (see Section 6.2.1.2) were thawed, counted, and transplanted intrafemorally into the preconditioned mice at a dose of 5×10^6 cells/mouse in a total volume of 30 μL phosphate buffered saline.
Treatment and Assay Procedure: At Day 21 post AML transplantation, mice were randomly grouped and dosed with either Compound D at 2.5 mg/kg or vehicle (5% N-methyl-2-pyrrolidone [NMP]/45% polyethylene glycol [PEG] 400/50% saline), intraperitoneally twice daily in a dose volume of 50 μL for 4 weeks. All animals were euthanized at scheduled termination (1 day after the last treatment) and bone marrow was collected from the right femur (injected bone marrow) and the left femur and left and right tibia (non-injected bone marrow). Cells isolated from injected or non-injected bone marrow were analyzed by flow cytometry to assess AML engraftment, and were viably frozen for future secondary engraftment analysis.
Cells harvested from injected and non-injected bone marrow were stained with mouse anti human antibodies as indicated in Section 6.2.1.3. After staining, washed cells were run on an LSRII flow cytometer (BD, USA) with 10,000 to 20,000 events collected for each sample. Collected data were analyzed by FlowJo software (TreeStar, USA) to assess AML engraftment levels in different tissues as determined by the percentage of human CD45+CD33+ cells.
Immune-deficient NOD/SCID mice were sublethally irradiated (225cGy) and treated with anti-CD122 antibody to eradicate residual mouse NK cells the day before AML implantation. Primary AML cells from each patient were intrafemorally injected into the mouse right femur at the cell dose 5×10^6 per mouse, with 10 mice transplanted per sample. Compound D and vehicle treatment was initiated at day 21 post transplantation. Compound D was administered at 2.5 mg/kg, intraperitoneally (IP) twice a day at 3 hours apart for 4 weeks. Before each treatment, Compound D was freshly dissolved into the solution. Vehicle was the same solution without Compound D compound and given to the control-treated mice at same volume (50 μL/mouse) with the same therapeutic schedule as Compound D treatment. For each patient sample, each treated group had 5 mice.
After treatment finished, cells were harvested from both injected right femur (RF) and non-injected bone marrow (BM, including left femur, 2 tibias), and stained with human antibodies to assess the engraftment levels of AML. Antibodies used for staining included: Mouse anti-human CD45-APC, CD15-FITC, CD34-APC7, CD38-PC7 (BD Biosciences, USA), CD14-PE, CD33-PC5 (Beckman Coulter, USA), CD19-V450, CD19-AF700, CD11b-APC7, CD34-BV421 (BD Biosciences, USA), and propidium iodide (PI; Invitrogen, USA).

[1] = three samples with high LSC17 score

O=C1CCC(N2Cc3cc(CNC(=O)C(F)(F)c4ccc(Cl)cc4)ccc3C2=O)C(=O)N1 (centres unmarked) [Compound D, 2-(4-chlorophenyl)-N-((2-(2,6-dioxopiperidin-3-yl)-1-oxoisoindolin-5-yl)methyl)-2,2-difluoroacetamide]
response of samples with low LSC17 scores (7 of the low LSC17 samples, more than 50% reduction): responded very well
human CD45+ leukemia graft in RF and BM (AML 100348 (low LSC17)): significant response
paralyzation or death (AML Patient 90668, 5 million cells per mouse): did not rescue these mice from paralyzation or death
number of high LSC17 samples with more than 80% leukemia reduction, BM (BM): 17
number of samples with 50 to 75% reduction (group 2), BM (BM): 6
number of samples with >80% reduction (group 1), BM (BM): 14
In vivo Efficacy (% reduction) BM (Patient 598): 95%
In vivo Efficacy (% reduction) RF (Patient 598): 46%
Response (Patient 598): R (R = >60%)
In vivo Efficacy (% reduction) BM (Patient 90191): −250%
In vivo Efficacy (% reduction) RF (Patient 90191): −21%
Response (Patient 90191): NR (NR = <30%)
In vivo Efficacy (% reduction) BM (Patient 100348): 90%
In vivo Efficacy (% reduction) RF (Patient 100348): 86%
Response (Patient 100348): R (R = >60%)
In vivo Efficacy (% reduction) BM (Patient 110484): 96%
In vivo Efficacy (% reduction) RF (Patient 110484): 73%
Response (Patient 110484): R (R = >60%)
In vivo Efficacy (% reduction) BM (Patient 110500): 67%
In vivo Efficacy (% reduction) RF (Patient 110500): 72%
Response (Patient 110500): R (R = >60%)
In Vivo Efficacy (Primary Mice) % AML cell reduction relative to Veh, BM (Patient 110625): 99.9%
In Vivo Efficacy (Primary Mice) % AML cell reduction relative to Veh, RE (Patient 110625): 99.9%
In vivo Efficacy (% reduction) BM (Patient 120791): 98%
In vivo Efficacy (% reduction) RF (Patient 120791): 69%
Response (Patient 120791): R (R = >60%)
In vivo Efficacy (% reduction) BM (Patient 120846): 26%
In vivo Efficacy (% reduction) RF (Patient 120846): 9%
Response (Patient 120846): NR (NR = <30%)
In vivo Efficacy (% reduction) BM (Patient 120858): 2%
In vivo Efficacy (% reduction) RF (Patient 120858): 0%
Response (Patient 120858): NR (NR = <30%)
percent and number of CD34+ primitive cells (Patient 120860): not reduced
numbers of AML cells, injected femur (Patient 120860 (low LSC17)): did not reduce the numbers of AML cells
number of AML cells, non-injected BM (Patient 120860 (low LSC17), vs vehicle): significantly reduced
In vivo Efficacy (% reduction) BM (Patient 120860): 20%
In vivo Efficacy (% reduction) RF (Patient 120860): 1%
Response (Patient 120860): NR (NR = <30%)
In vivo Efficacy (% reduction) BM (Patient 120899): 67%
In vivo Efficacy (% reduction) RF (Patient 120899): 13%
Response (Patient 120899): R (R = >60%)
In vivo Efficacy (% reduction) BM (Patient 121020): 52%
In vivo Efficacy (% reduction) RF (Patient 121020): 42%
Response (Patient 121020): PR (PR = 30%-60%)
In Vivo Efficacy (Primary Mice) % AML cell reduction relative to Veh, BM (Patient 130311): 99.6%
In Vivo Efficacy (Primary Mice) % AML cell reduction relative to Veh, RE (Patient 130311): 99.8%
In vivo Efficacy (% reduction) BM (Patient 130578): 73%
In vivo Efficacy (% reduction) RF (Patient 130578): 61%
Response (Patient 130578): R (R = >60%)
In vivo Efficacy (% reduction) BM (Patient 130695): 86%
In vivo Efficacy (% reduction) RF (Patient 130695): 52%
Response (Patient 130695): R (R = >60%)
In vivo Efficacy (% reduction) BM (Patient 130712): 56%
In vivo Efficacy (% reduction) RF (Patient 130712): 17%
Response (Patient 130712): PR (PR = 30%-60%)
In Vivo Efficacy (Primary Mice) % AML cell reduction relative to Veh, BM (Patient 130826): 98.1%
In Vivo Efficacy (Primary Mice) % AML cell reduction relative to Veh, RE (Patient 130826): 95.0%
In vivo Efficacy (% reduction) BM (Patient 130926): 85%
In vivo Efficacy (% reduction) RF (Patient 130926): 70%
Response (Patient 130926): R (R = >60%)
In vivo Efficacy (% reduction) BM (Patient 140171): 28%
In vivo Efficacy (% reduction) RF (Patient 140171): 4%
Response (Patient 140171): NR (NR = <30%)
In Vivo Efficacy (Primary Mice) % AML cell reduction relative to Veh, BM (Patient 150238): 98.7%
In Vivo Efficacy (Primary Mice) % AML cell reduction relative to Veh, RE (Patient 150238): 95.2%
number of high LSC17 samples with more than 80% leukemia reduction, RF (RF): 13
number of samples with 50 to 75% reduction (group 2), RF (RF): 10
number of samples with >80% reduction (group 1), RF (RF): Seventeen
number of samples with less than 25% reduction (group 3), RF (RF): 9
response, secondary and relapsed vs de novo AML (RF and BM): responses similar to the cells from de novo AML patients
samples considered responders or partial-responders (RF and BM, all samples): 29 out of 35 samples
AML samples with significant effect (Section 6.2.6, 4 weeks): significant effects on 4 out of 5 AML samples
engrafted samples with significant and dramatic responses (Section 6.3, 31 patient samples tested): 24 out of 28
responder samples (among 7 AML samples incl. 2 pilot samples): 5 samples were responders
samples that did not respond at all, injected RF (group 3): 4 out of 9
samples with no AML reduction, BM (group 3): 3 out of 6
response, Flt3-ITD vs wild-type Flt3 in cytogenetically normal AML (mouse, in vivo): slightly less response to Compound D in injected RF but similar response in BM
response, abnormal vs normal karyotypes (mouse, in vivo): better response
AML cells in RF and BM [1]: completely eradicated to undetectable levels
absolute numbers of primitive CD34+ cells [1]: very low and undetectable levels
